Values joined by “and” are separate entries in the source; they are usually repeats but may differ in a detail not shown here. Identical values can stand only once. “Also recorded” adds a separate entry of the source. Like-named read-outs stand apart in the source and are kept apart here.
Assays:
[1] = test system: cholesterol synthesis in rat primary astrocytes
[2] = in vivo; cited from earlier work
[3] = test system: ceramide production in rat primary astrocytes; experiment: Degradation of sphingomyelin to ceramide (DAG kinase assay, HPTLC) in rat primary astrocytes; format: cell-based; settings: 10 mM NAC or 100 μM PDTC 1 h before TNF-α or IL-1β (50 ng/ml), diamide 0.5 mM or aminotriazole 5 mM
Method in brief: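 About 1.0×10^6 cells were exposed to cytokines with or without antioxidants for various periods, then lipids were extracted. Sphingomyelin was separated by HPTLC and quantified by densitometry. Ceramide was phosphorylated with DAG kinase and [γ-^32P]ATP, and ceramide 1-phosphate was resolved by TLC and quantified by autoradiography/densitometry, expressed as arbitrary absorbance units or percent change.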

[4] = test system: NOS activity in rat resident macrophages; experiment: NOS activity (L-citrulline from L-arginine) in homogenates of treated rat resident macrophages; format: cell-based; settings: for inhibition at 20000 µM: Rattus norvegicus, Macrophage
Protocol: NOS activity was measured directly by production of L-[2,3,4,5-^3H]citrulline from L-[2,3,4,5-^3H] arginine (Feinstein et al., 1994a). […] Assays were carried out for 30 to 40 min and the production of L-[2,3,4,5-^3H] citrulline was linear. The reactions were stopped by addition of 800 μl of ice-cold 20 mM HEPES (pH 5.5) followed by addition of 2 ml of Dowex-50W equilibrated in the same buffer. The samples were then centrifuged and the concentration of L-[^3H]citrulline was determined in the supernatant by liquid scintillation counting.

[5] = test system: conversion of pro-p21^ras to mature-p21^ras; settings: Sinensky et al., 1991; read-out: IC50 for inhibition of conversion of pro-p21^ras to mature-p21^ras; cited from earlier work
[6] = test system: astrocytes, microglia or macrophages
From the text: Cell viability Cytotoxic effects of the inhibitors were deter-mined by measuring the cell viability by Trypan blue exclusion.

[7] = Plasma total cholesterol in X-ALD patients on lovastatin; format: in vivo, human; settings: individual patients, at six months (Patients 1, 2, 3, 6, 7), four months (Patient 4), three months (Patient 5)
[8] = human, in vivo
[9] = IFN-γ 200 U/ml, NAC 20 mM 2 h before
[10] = IL-1β 200 ng/ml, NAC 20 mM 2 h before
[11] = LPS 0.2 μg/ml + IFN-γ 50 U/ml, NAC 20 mM 2 h before
[12] = LPS 0.2 μg/ml + IL-1β 25 ng/ml, NAC 20 mM 2 h before
[13] = LPS 0.2 μg/ml + TNF-α 20 ng/ml, NAC 20 mM 2 h before
[14] = LPS 1.0 μg/ml, NAC 20 mM 2 h before
[15] = TNF-α 20 ng/ml + IFN-γ 50 U/ml, NAC 20 mM 2 h before
[16] = TNF-α 20 ng/ml + IL-1β 25 ng/ml, NAC 20 mM 2 h before
[17] = TNF-α 100 ng/ml, NAC 20 mM 2 h before
[18] = no stimulus (Control), NAC 20 mM

In the case of `O=C([O-])Cc1ccccc1.[Na+]` [NaPA, sodium salt of phenylacetic acid], the “inhibition of the synthesis of cholesterol” value [1] is given as 64±5.3% and the pharmacologically attainable concentration [2] is given as 1 to 5 mM.
In the case of `CC(=O)N[C@@H](CS)C(=O)O` [NAC, N-acetyl cysteine], the “degradation of sphingomyelin to ceramide / ceramide production” value [3] is reported as “potentially blocked the decrease in sphingomyelin as well as the increase in ceramide; also recorded: blocked diamide-mediated decrease in GSH level and induction of ceramide production; also recorded: blocked the ATZ-mediated increase in ceramide production”, the “L-citrulline (NOS activity)” value [4, 9] is reported as 13.2 ± 2.4 pmol/min/mg and the “L-citrulline (NOS activity)” value [4, 10] is reported as 12.9 ± 2.1 pmol/min/mg. For the same compound, the “L-citrulline (NOS activity)” value [4, 11] was 32.3 ± 4.6 pmol/min/mg, the “L-citrulline (NOS activity)” value [4, 12] was 44.9 ± 6.1 pmol/min/mg and the “L-citrulline (NOS activity)” value [4, 13] was 19.7 ± 2.7 pmol/min/mg. For the same compound, the “LPS-induced NOS activity, L-citrulline formation” value ([4]; LPS 1.0 μg/ml, 24 h) was “formation of L-citrulline was strongly inhibited; also recorded: inhibited LPS-induced NOS activity”, the “L-citrulline (NOS activity)” value [4, 14] was 14.2 ± 2.3 pmol/min/mg and the inhibition at 20000 µM [4, 9] was 90%. For the same compound, the inhibition at 20000 µM [4, 10] was 43%, the inhibition at 20000 µM [4, 11] was 83% and the inhibition at 20000 µM [4, 12] was 78%. The inhibition at 20000 µM [4, 13] was 91%, the inhibition at 20000 µM [4, 14] was 91% and the inhibition at 20000 µM [4, 15] was 82%. The inhibition at 20000 µM [4, 16] was 85%, the inhibition at 20000 µM [4, 17] was 61% and the inhibition at 20000 µM [4, 18] was 25%. For the same compound, the “L-citrulline (NOS activity)” value [4, 15] was 36.9 ± 3.4 pmol/min/mg, the “L-citrulline (NOS activity)” value [4, 16] was 28.2 ± 4.3 pmol/min/mg and the “L-citrulline (NOS activity)” value [4, 17] was 12.9 ± 2.3 pmol/min/mg. The “L-citrulline (NOS activity)” value [4, 18] was 10.2 ± 0.9 pmol/min/mg.
For `CC[C@H](C)C(=O)O[C@H]1C[C@@H](C)C=C2C=C[C@H](C)[C@H](CC[C@@H]3C[C@@H](O)CC(=O)O3)[C@H]21` [Lovastatin], the IC50 [5] is given as 2600 nM, the “viability (trypan blue exclusion)” value [6] is given as “had no effect on the viability of astrocytes, microglia, or macrophages” and the “viability (trypan blue exclusion)” value ([6]; rat) is given as “none of the compounds lovastatin, mevastatin, NaPA, TNF-α, IL-1β, IFN-γ, or LPS had a significant effect on the viability”. For the same compound, the “Plasma Total Cholesterol After Treatment” value ([7]; after four months of treatment) was 167 mg/dL, the “Plasma Total Cholesterol After Treatment” value ([7]; after six months of treatment) was 158 mg/dL and 204 mg/dL and 230 mg/dL and 183 mg/dL and 96 mg/dL and the “adverse events leading to withdrawal” value [8] was “persistent diarrhea and a marked elevation of serum creatine kinase levels”.
